Measurements from patent EP0772773B1, “Src SH3 BINDING PEPTIDES AND METHODS OF ISOLATING AND USING SAME” (THE UNIVERSITY OF NORTH CAROLINA, priority 1994, dated 2006).
Entries after “also recorded” stand apart in the source; their conditions may differ.

What was measured:
[1] = test system: NIH 3T3 fibroblasts; test: Fluorescence staining of fixed fibroblasts with biotinylated peptides and streptavidin-Cy3; type: cell-based; conditions: fixed NIH 3T3 fibroblasts; biotinylated peptide, streptavidin-Cy3; Figure 11
Procedure: Thus, NIH 3T3 fibroblasts were cultured in vitro on glass coverslips coated with fibronectin. After two days of growth at 37 °C, the cells were fixed for one hour at room temperature in the presence of 2% paraformaldehyde (pH 7.5). The coverslips were washed with PBS-0.1% Tween 20 several times to remove the fixative. Next, the coverslips were dipped into acetone (chilled at -20 °C) for approximately 20 seconds and allowed to air-dry. The coverslips were washed again with PBS-0.1% Tween 20, containing BSA (1 mg/mL), and incubated for 2 hours at room temperature with different biotinylated peptides in PBS-0.1% Tween 20. The coverslips were washed and then incubated with 1 mg/mL streptavidin-Cy3 (Jackson Immunoresearch Co., West Grove, PA) for 1 hour at room temperature. Finally, the coverslips were washed in PBS-0.1% Tween 20, mounted in a glycerol solution on a glass slide, and viewed with a Nikon Optiphot epifluorescence microscope and a 60x oil immersion lens.

[2] = test system: Src SH3-GST; test: Biotinylated synthetic peptide direct binding ELISA on immobilized GST-SH3 fusion; conditions: 10 µM biotinylated peptide; streptavidin-alkaline phosphatase ELISA, absorbance at 405 nm; Figures 7 and 8
Text: (§1) The preparation of Src-GST fusion protein was first described by Smith and Johnson, in Gene (1988) 67:31, the disclosure of which is incorporated by reference herein. Briefly, pGEX-derived (Pharmacia, Piscataway, NJ) constructs expressing GST fusion proteins containing the SH3 domains of Src, Grb2, Crk, Abl, or PLCγ were obtained from Dr. Channing Der (University of North Carolina at Chapel Hill.), a construct expressing the SH3 domain of Yes was obtained from Dr. Marius Sudol (Rockefeller University). The use of the pGEX bacterial expression vector for the production of GST-SH3 fusion proteins is well-known to those in the art. See, e.g., Cicchetti, P. et al., in Science (1992) 257:803-806. Briefly, the coding region for a particular SH3 domain can be fused in-frame at the Bam HI site of pGEX-2T. Thus, fusion proteins were prepared as per the manufacturer's instructions, and quantified by Coomassie Blue staining of SDS-polyacrylamide gels. Microtiter wells were coated with 5-20 µg GST-SH3 fusion protein in 100 mM NaHCO3, pH 8.5, blocked with 100 mM NaHCO3 (pH 8.5) 1% BSA, and washed. All washes consisted of five applications of 1XPBS, 0.1% Tween 20, 0.1% BSA (Buffer A). Where appropriate, the amount of protein bound to each well was quantified with an anti-GST antibody-based ELISA (Pharmacia, Piscataway, NJ), and with a GST-binding phage, isolated during the course of this work.
Bacterially expressed Src SH3 glutathione-s-transferase (Src-GST) fusion protein was purified from bacterial lysates using glutathione agarose 4B (Pharmacia), according to the manufacturer's instructions. Bound Src-GST fusion protein was eluted from the glutathione agarose with 10 mM glutathione in PBS. Microtiter wells were then coated with Src-GST fusion protein (1-10 µg/well, in 50 mM NaHCO3, pH 8.5) overnight at 4 °C. To block non-specific binding of phage, 100 µL 1% BSA in 100 mM NaHCO3, pH 8.5, was added to each well and allowed to incubate at room temperature for 1 hour. The wells were then washed five times with 200 µL PBS, 0.1% Tween 20, 0.1% BSA (Buffer A).
(§2) Peptides were obtained from Research Genetics (Birmingham, AL), Chiron Mimotopes (Victoria, Australia), or synthesized by conventional techniques by Dr. J. Mark Carter of cytogen Corporation (Princeton, NJ). Peptide purity was assessed by HPLC and/or mass spectrometry. Biotinylated peptides were synthesized with either a KSGSG (SEQ ID NO:103) or a GSGS (SEQ ID NO:104) peptide linker (a spacer) between the biotin and the N-terminus of the peptide. Binding experiments were performed as above, excepting the use of 10 µM peptide instead of phage. Bound biotinylated peptide was detected with streptavidin conjugated to alkaline phosphatase (Sigma chemical Co., st. Louis, MO). After one hour incubation period at room temperature, the wells were washed, and a solution of 3 mM p-nitrophenyl-phosphate (US Biochemicals, Cleveland, OH) in 50 mM NaCO3 (pH 9.8), and 50 mM MgCl2 was added and color allowed to develop. Signals were read with an ELISA plate reader (Molecular Devices, Menlo Park, CA) at 405 nm wavelength. Binding experiments were performed in triplicate.

[3] = test system: Grb2-GST; test: as above; conditions: 10 µM biotinylated peptide, absorbance at 405 nm, Figure 8
Text: as §1, §2

[4] = test system: PLCγ1 SH2SH3-GST; test: as above; conditions: 10 µM biotinylated peptide, absorbance at 405 nm, Figure 8
Text: as §1, §2

[5] = test system: Yes SH3-GST; test: as above; conditions: 10 µM biotinylated peptide, absorbance at 405 nm, Figure 8
Text: as §1, §2

[6] = test system: SH3 domains; test: Relative specificity of peptide binding across SH3 domains derived from different proteins; conditions: synthetic peptides, compared with 7-mer RPLPPLP, Figures 7 and 8
Text: as §1, §2

[7] = target: Src and PI-3' Kinase SH3 domains; conditions: Yu et al. / Chen et al., biased library peptides; read-out: binding affinity; cited from earlier work
[8] = test system: SH3 domains; test: Relative specificity of peptide binding across SH3 domains derived from different proteins; conditions: not tested

| Substance | fluorescence staining / cellular localization [1] | binding to Src SH3-GST [2] | relative binding affinity / specificity for SH3 domains [6] | other results |
| --- | --- | --- | --- | --- |
| biotin-spacer-GILAPPVPPRNTR | bright display of fluorescence activity | – | – | – |
| GPHRRLPPTPATR | – | much more avidly than the 7-mer | specific to Src family SH3 domains | binding to Grb2 SH3 domain [3]: little affinity; binding to PLCγ SH3 domain [4]: little affinity; binding to Yes SH3-GST [5]: much more avidly than the 7-mer; relative binding affinity / specificity for SH3 domains ([6]; listed as GPHRRLPPPTPATR): avid binding affinity to SH3 domains relative to the 7-mer |
| biotin-spacer-LAPPKPPLPEGEV [reference compound] | relatively "dark" features | – | – | – |
| RPLPPLP | – | only weakly | less effective in binding to target SH3 domains | – |
| RSTPRPLPPLPTTR [representative consensus motif with R8C.YES3.5 flanking residues] | localize within cellular compartments thought to contain Src or Src-related proteins | much more avidly than the 7-mer; also recorded: strong specific binding affinity | highly specific for SH3 domain of Src, Yes, and other Src-related proteins | binding to Yes SH3-GST [5]: much more avidly than the 7-mer |
| biotin-spacer-VLKRPLPIPPVTR | bright display of fluorescence activity | – | – | – |
| biotin-spacer-RSTPRPLPPLPTTR | bright display of fluorescence activity | – | – | – |
| RSTPRPLPMLPTTR | – | much more avidly than the 7-mer; also recorded: strong specific binding affinity | highly specific for SH3 domain of Src, Yes, and other Src-related proteins | binding to Yes SH3-GST [5]: much more avidly than the 7-mer |
| GTVEPVPPPVPPRRRPESA [reference compound] | – | less well than the library-derived peptides | – | – |
| KISPPTPKPKPPRPLPV [reference compound] | – | less well than the library-derived peptides | – | – |
| ANPSPATRPLPTR | – | – | binding affinities comparable to the core consensus sequence; also recorded: avid binding affinity to SH3 domains relative to the 7-mer | relative binding affinity / specificity for SH3 domains ([6]; listed as AHPSPATRPLPTR): Src family specificity similar to GPHRRLPPTPATR |
| RKLPPRPRR ["composite" peptide of the literature] | – | – | – | Kd [7]: 7.6 µM |
| RSTPAPPVPPRTTR | – | – | – | surmised binding to a variety of SH3 domains [8]: strong but generic binding |
| GILAPPVPPRNTR | localize within cellular compartments thought to contain Src or Src-related proteins | much more avidly than the 7-mer | binds generically to a broad range of SH3 domains; also recorded: avid binding affinity to SH3 domains relative to the 7-mer; also recorded: more generic SH3 domain-binding characteristics | binding to Yes SH3-GST [5]: much more avidly than the 7-mer |
